Test results taken from PMC3121796 (PLoS ONE, 2011).
Positions of bridges follow the written chain, without caps; N, C: chain ends. Residues, ends and D or L forms follow the SMILES beside them. No end group written: not given here.

How the values were obtained:
[1] = cited from earlier work
Excerpt: It was reported that the cytoplasm of E. coli cells contains high levels of reduced glutathione (approximately 5 mmole/L); therefore, the potential of ...

human Nav1.7 (hNav1.7) = target: T1, human Nav1.7 (hNav1.7) (Homo sapiens, UniProt Q15858); test: whole-cell patch-clamp assay, inhibition of hNav1.7 currents; assay type: cell-based; conditions: 1 µmole/L toxin, HEK293 cells expressing hNav1.7, depolarization to −10 mV, room temperature, one range given for both toxins
T1 construct: expressed in transfected cells; host or cells: HEK293
T1 sequence (Q15858 whole entry): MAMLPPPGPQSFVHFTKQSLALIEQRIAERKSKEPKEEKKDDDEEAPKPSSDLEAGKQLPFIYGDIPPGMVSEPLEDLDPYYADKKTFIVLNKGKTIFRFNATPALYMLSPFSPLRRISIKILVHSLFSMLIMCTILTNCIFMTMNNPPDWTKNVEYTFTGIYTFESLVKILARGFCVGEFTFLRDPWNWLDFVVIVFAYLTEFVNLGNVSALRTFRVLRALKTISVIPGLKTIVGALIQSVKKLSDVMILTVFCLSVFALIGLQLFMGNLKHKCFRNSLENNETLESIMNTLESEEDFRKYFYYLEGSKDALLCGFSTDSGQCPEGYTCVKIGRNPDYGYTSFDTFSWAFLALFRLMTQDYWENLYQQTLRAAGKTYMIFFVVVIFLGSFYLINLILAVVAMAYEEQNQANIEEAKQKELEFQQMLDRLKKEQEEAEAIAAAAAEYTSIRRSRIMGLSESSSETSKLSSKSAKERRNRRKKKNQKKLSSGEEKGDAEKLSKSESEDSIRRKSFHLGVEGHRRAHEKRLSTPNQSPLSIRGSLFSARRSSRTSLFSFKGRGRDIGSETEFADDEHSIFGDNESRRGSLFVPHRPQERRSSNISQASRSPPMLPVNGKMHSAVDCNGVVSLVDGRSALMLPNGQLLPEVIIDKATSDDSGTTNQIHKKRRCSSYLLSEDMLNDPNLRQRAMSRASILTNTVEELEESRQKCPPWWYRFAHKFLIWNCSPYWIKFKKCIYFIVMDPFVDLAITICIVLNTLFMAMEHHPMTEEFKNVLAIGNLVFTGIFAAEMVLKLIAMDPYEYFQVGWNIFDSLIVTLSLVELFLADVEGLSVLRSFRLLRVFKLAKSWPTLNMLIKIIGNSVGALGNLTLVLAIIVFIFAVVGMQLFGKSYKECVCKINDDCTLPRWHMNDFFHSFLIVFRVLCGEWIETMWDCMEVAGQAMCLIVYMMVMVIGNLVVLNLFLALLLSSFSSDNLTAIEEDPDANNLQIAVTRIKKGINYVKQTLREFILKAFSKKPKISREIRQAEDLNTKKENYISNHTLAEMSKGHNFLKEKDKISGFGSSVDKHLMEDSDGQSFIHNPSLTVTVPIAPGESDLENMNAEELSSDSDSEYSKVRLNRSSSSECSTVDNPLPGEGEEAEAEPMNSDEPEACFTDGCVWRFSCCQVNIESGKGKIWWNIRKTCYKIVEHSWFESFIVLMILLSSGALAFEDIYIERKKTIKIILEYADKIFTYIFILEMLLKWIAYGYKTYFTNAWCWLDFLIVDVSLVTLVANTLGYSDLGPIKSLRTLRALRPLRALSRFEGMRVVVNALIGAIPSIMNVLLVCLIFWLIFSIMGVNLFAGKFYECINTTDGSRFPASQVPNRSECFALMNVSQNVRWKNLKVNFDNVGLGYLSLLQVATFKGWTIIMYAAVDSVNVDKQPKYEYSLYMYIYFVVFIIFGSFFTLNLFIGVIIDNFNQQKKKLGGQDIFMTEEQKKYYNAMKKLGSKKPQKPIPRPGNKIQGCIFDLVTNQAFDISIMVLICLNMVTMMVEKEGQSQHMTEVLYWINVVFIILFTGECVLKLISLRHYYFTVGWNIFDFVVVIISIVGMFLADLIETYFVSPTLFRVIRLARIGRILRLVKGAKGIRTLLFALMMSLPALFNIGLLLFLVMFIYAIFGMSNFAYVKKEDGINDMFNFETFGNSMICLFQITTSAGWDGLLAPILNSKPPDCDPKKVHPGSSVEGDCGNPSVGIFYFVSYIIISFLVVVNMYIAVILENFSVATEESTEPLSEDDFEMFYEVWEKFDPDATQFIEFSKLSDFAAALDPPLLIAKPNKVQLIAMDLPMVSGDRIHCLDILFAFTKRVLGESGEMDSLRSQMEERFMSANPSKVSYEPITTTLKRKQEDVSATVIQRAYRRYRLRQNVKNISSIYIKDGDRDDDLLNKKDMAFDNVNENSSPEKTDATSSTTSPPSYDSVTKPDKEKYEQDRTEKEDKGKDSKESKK

rHWTX-I (GST or KIS fusion, cytoplasm): earlier rHWTX-I expressed fused with GST or ketosteroid isomerase (KIS) in the cytoplasm of E. coli cells (ACKGVFDACTPGKNECCPNRVCSDKHKWCKWKL; not fully specified; cysteine pairing not given here; UniProt P56676 49-81, looked up)
bioactivity after release by enzyme digestion ([1]; GST fusion expressed in cytoplasm of E. coli, no disulfide bridge formed, ref [8]): very low bioactivity | bioactivity after reduction/renaturation ([1]; released from GST or KIS fusion protein expressed in cytoplasm of E. coli, after reduction/renaturation treatment, ref [8], [9]): fully restore the bioactivities | bioactivity before reduction/renaturation ([1]; released from GST or KIS fusion protein expressed in cytoplasm of E. coli, before reduction/renaturation treatment, ref [8], [9]): extremely low bioactivity

rHWTX-I (baculovirus): earlier rHWTX-I expressed in a baculovirus system (ACKGVFDACTPGKNECCPNRVCSDKHKWCKWKL; ends and bridges not checked; cysteine pairing not given here; UniProt P56676 49-81, looked up)
bioactivity of baculovirus-expressed peptide ([1]; baculovirus system, ref [11]): demonstrated natural bioactivities

CC(C)C[C@H](NC(=O)[C@H](CCCCN)NC(=O)[C@H](Cc1c[nH]c2ccccc12)NC(=O)[C@H](CCCCN)NC(=O)[C@@H]1CSSC[C@@H]2NC(=O)[C@H](CCC(=O)O)NC(=O)[C@H](CC(N)=O)NC(=O)[C@H](CCCCN)NC(=O)CNC(=O)[C@@H]3CCCN3C(=O)[C@H]([C@@H](C)O)NC(=O)[C@@H]3CSSC[C@H](NC(=O)[C@H](C(C)C)NC(=O)[C@H](CCCNC(=N)N)NC(=O)[C@H](CC(N)=O)NC(=O)[C@@H]4CCCN4C(=O)[C@H](CSSC[C@H](NC(=O)[C@H](C)N)C(=O)N[C@@H](CCCCN)C(=O)NCC(=O)N[C@@H](C(C)C)C(=O)N[C@@H](Cc4ccccc4)C(=O)N[C@@H](CC(=O)O)C(=O)N[C@@H](C)C(=O)N3)NC2=O)C(=O)N[C@@H](CO)C(=O)N[C@@H](CC(=O)O)C(=O)N[C@@H](CCCCN)C(=O)N[C@@H](Cc2c[nH]cn2)C(=O)N[C@@H](CCCCN)C(=O)N[C@@H](Cc2c[nH]c3ccccc23)C(=O)N1)C(=O)O [rHWTX-I] (H-ACKGVFDACTPGKNECCPNRVCSDKHKWCKWKL-OH; disulfide 2-17, 9-22, 16-29)
hNav1.7 current reduced to (remaining current) (human Nav1.7 (hNav1.7)): 33–36%
